Measurements from US10611750B2, “Tetrahydroquinoline compositions as bet bromodomain inhibitors” (FORMA Therapeutics, Inc., priority 2013, dated 2020).

Experiments:
[1] = target: T1, BRD4 Bromodomain 1 (BRD4 BD1) (Homo sapiens, UniProt O60885); test: AlphaScreen binding assay, BRD4 BD1; conditions: His-tagged BRD4 BD1 50 nM, biotinylated H4 (1-21) K5/8/12/16 tetra-acetylated peptide 50 nM, compounds listed under IC50 range headings
T1 construct: 44-168 and BRD4 BD2
Summary of the method: (§1)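 Compound dilution series were mixed with His-tagged BRD4 bromodomain and biotinylated tetra-acetylated H4 (1-21) peptide at pH 7.3 (BD1 and peptide at 50 nM, BD2 and peptide at 100 nM). Donor and acceptor beads were then added, and plates were equilibrated at least 1 h before reading. IC50 values were fitted with a four-parameter logistic model.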

[2] = target: T2, BRD4 Bromodomain 2 (BRD4 BD2) (Homo sapiens, UniProt O60885); test: AlphaScreen binding assay, BRD4 BD2; conditions: His-tagged BRD4 BD2 100 nM, biotinylated H4 (1-21) K5/8/12/16 tetra-acetylated peptide 100 nM, compounds listed under IC50 range headings
T2 construct: 333-460 were cloned, expressed, and purified to homogeneity
Summary of the method: as §1

[3] = system: acute myelocytic leukemia (AML) cell line MV4-11; test: Oncology cell growth assay (3-day proliferation, CellTiter-Glo); type: cell-based; conditions: Homo sapiens, MV4-11, 72 h, MV4-11 cells, 3000 cells/well, compounds listed under IC50 range headings, read-out: MV411 IC50 (gIC50, inhibition of proliferation)
Summary of the method: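 Luminescence from CellTiter-Glo served as the growth read-out after MV4-11 cells (3000/well) were cultured with compound for 72 hours. Final concentrations spanned 10 to 0.0045 μM in 3-fold steps. gIC50 values were derived by four-parameter logistic fitting relative to DMSO and cell-free controls.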

Row | IC50 [1] | IC50 [2] | IC50 [3] | SMILES
1 | 100 to 1000 nM | 50 to 500 nM | > 1000 nM | CC(=O)N1c2ccc(-c3cnn(C4COC4)c3)c(OC[C@@H]3CCNC3)c2CC[C@@H]1C [I-600]
2 | 100 to 1000 nM | < 50 nM | < 500 nM | C[C@H]1CCc2c(ccc(-c3cnn(C4CCNCC4)c3)c2Oc2ccccc2C#N)N1C(=O)C1CC1 [I-150, (S)-2-(1-(cyclopropanecarbonyl)-2-methyl-6-(1-(piperidin-4-yl)-1H-pyrazol-4-yl)-1,2,3,4-tetrahydroquinolin-5-yloxy)benzonitrile]
3 | 100 to 1000 nM | < 50 nM | < 500 nM | CC(=O)N1c2ccc(-c3cnn(C4CC4)c3)c(Oc3ncccc3C#N)c2CC[C@@H]1C [I-84, (S)-2-(1-acetyl-6-(1-cyclopropyl-1H-pyrazol-4-yl)-2-methyl-1,2,3,4-tetrahydroquinolin-5-yloxy)nicotinonitrile]
4 | 100 to 1000 nM | < 50 nM | < 500 nM | C[C@H]1CCc2c(ccc(-c3cnn(C4CCNCC4)c3)c2Oc2ccc(Cl)cc2)N1C(=O)C1CC1 [I-166, (S)-(5-(4-chlorophenoxy)-2-methyl-6-(1-(piperidin-4-yl)-1H-pyrazol-4-yl)-3,4-dihydroquinolin-1(2H)-yl)(cyclopropyl)methanone]
5 | 1000 to 10000 nM | 50 to 500 nM | > 1000 nM | CC(=O)N1c2ccc(-c3cnn(C4CC4)c3)c(OC3CN(C(C)C)C3)c2CC[C@@H]1C [I-254, (S)-1-(6-(1-cyclopropyl-1H-pyrazol-4-yl)-5-(1-isopropylazetidin-3-yloxy)-2-methyl-3,4-dihydroquinolin-1(2H)-yl)ethanone]
6 | 1000 to 10000 nM | 50 to 500 nM | < 500 nM | COC(=O)N1c2ccc(-c3cnn(C4CCNCC4)c3)c(Oc3cccc(C#N)c3)c2CC[C@@H]1C [I-596]
7 | 1000 to 10000 nM | < 50 nM | > 1000 nM | COC(=O)N1c2ccc(-c3cnn(CC(C)(C)O)c3)c(Oc3ncccc3C(F)(F)F)c2CC[C@@H]1C [I-563]
8 | 100 to 1000 nM | < 50 nM | 500 to 1000 nM | CC(=O)N1c2ccc(-c3cnn(C4CC4)c3)c(OCC(C)(C)CO)c2CC[C@@H]1C [I-39, (S)-1-(6-(1-cyclopropyl-1H-pyrazol-4-yl)-5-(3-hydroxy-2,2-dimethylpropoxy)-2-methyl-3,4-dihydroquinolin-1(2H)-yl)ethanone]
9 | 100 to 1000 nM | 50 to 500 nM | < 500 nM | CC(=O)N1c2ccc(-c3cnn(C4CC4)c3)c(OCC3CCC3)c2CC[C@@H]1C [I-392]
10 | 1000 to 10000 nM | 50 to 500 nM | 500 to 1000 nM | COC(=O)N1c2ccc(-c3cnn(CC(C)(C)O)c3)c(Oc3ncc(C(F)(F)F)cc3F)c2CC[C@@H]1C [I-589]
11 | 100 to 1000 nM | < 50 nM | < 500 nM | COC(=O)N1c2ccc(-c3cnn([C@@H]4CCNC[C@@H]4F)c3)c(Oc3ccc(F)cc3)c2CC[C@@H]1C [I-365, methyl (2 S)-5-(4-fluorophenoxy)-6-{1-[(3S,4R)-3-fluoropiperidin-4-yl]-1H-pyrazol-4-yl}-2-methyl-1,2,3,4-tetrahydroquinoline-1-carboxylate]
12 | 1000 to 10000 nM | 50 to 500 nM | < 500 nM | COC(=O)N1c2ccc(-c3cnn(CCO)c3)c(Oc3ncc(C4CC4)cn3)c2CC[C@@H]1C [I-572]
13 | 1000 to 10000 nM | 50 to 500 nM | 500 to 1000 nM | COC(=O)N1c2ccc(-c3cnn(C4CC4)c3)c(Oc3ncccc3C(N)=O)c2CC[C@@H]1C [I-587]
14 | 100 to 1000 nM | < 50 nM | < 500 nM | CC(=O)N1c2ccc(-c3cnn(C4CCNCC4)c3)c(Oc3ncc(C)cn3)c2CC[C@@H]1C [I-144, (S)-1-(2-methyl-5-(5-methylpyrimidin-2-yloxy)-6-(1-(piperidin-4-yl)-1H-pyrazol-4-yl)-3,4-dihydroquinolin-1 (2H)-yl)ethanone]
15 | 100 to 1000 nM | < 50 nM | < 500 nM | COC(=O)N1c2ccc(-c3cnn(C4CCNCC4)c3)c(Oc3ccc(F)c(Cl)c3)c2CC[C@@H]1C [I-163, (S)-methyl 5-(3-chloro-4-fluorophenoxy)-2-methyl-6-(1-(piperidin-4-yl)-1H-pyrazol-4-yl)-3,4-dihydroquinoline-1(2H)-carboxylate]
16 | 1000 to 10000 nM | 50 to 500 nM | < 500 nM | COC(=O)N1c2ccc(-c3cnn(C4CC4)c3)c(OCCC3COC3)c2CC[C@@H]1C [I-30, (S)-methyl 6-(1-cyclopropyl-1H-pyrazol-4-yl)-2-methyl-5-(2-(oxetan-3-yl)ethoxy)-3,4-dihydroquinoline-1(2H)-carboxylate]
17 | 1000 to 10000 nM | 50 to 500 nM | < 500 nM | COC(=O)N1c2ccc(-c3cnn(C4CCNCC4)c3)c(Oc3ncccc3C#N)c2CC[C@@H]1C [I-147, (S)-methyl 5-(3-cyanopyridin-2-yloxy)-2-methyl-6-(1-(piperidin-4-yl)-1H-pyrazol-4-yl)-3,4-dihydroquinoline-1(2H)-carboxylate]
18 | 100 to 1000 nM | 50 to 500 nM | < 500 nM | CC(=O)N1c2ccc(-c3cnn(C4CC4)c3)c(Oc3ccccn3)c2CC[C@@H]1C [I-89, (S)-1-(6-(1-cyclopropyl-1H-pyrazol-4-yl)-2-methyl-5-(pyridin-2-yloxy)-3,4-dihydroquinolin-1(2H)-yl)ethanone]
19 | 1000 to 10000 nM | 50 to 500 nM | < 500 nM | COC(=O)N1c2ccc(-c3cnn(C4CCNCC4)c3)c(Oc3cnccn3)c2CC[C@@H]1C [I-526]
20 | 100 to 1000 nM | < 50 nM | < 500 nM | CC(=O)N1c2ccc(-c3cnn(C4CC4)c3)c(Oc3ncc(C)cn3)c2CC[C@@H]1C [I-92, (S)-1-(6-(1-cyclopropyl-1H-pyrazol-4-yl)-2-methyl-5-(5-methylpyrimidin-2-yloxy)-3,4-dihydroquinolin-1 (2H)-yl)ethanone]
21 | 100 to 1000 nM | < 50 nM | < 500 nM | CCCOc1c(-c2cnn(C3CNC3)c2)ccc2c1CC[C@H](C)N2C(=O)C1CC1 [I-102, (S)-(6-(1-(azetidin-3-yl)-1H-pyrazol-4-yl)-2-methyl-5-propoxy-3,4-dihydroquinolin-1(2H)-yl)(cyclopropyl)methanone]
22 | ≥ 10000 nM | 50 to 500 nM | > 1000 nM | CC(=O)N1c2ccc(-c3ccc(S(C)(=O)=O)cn3)c(OCC(=O)N(C)C)c2CC[C@@H]1C [I-116, (S)-2-(1-acetyl-2-methyl-6-(5-(methylsulfonyl)pyridin-2-yl)-1,2,3,4-tetrahydroquinolin-5-yloxy)-N,N-dimethylacetamide]
23 | 100 to 1000 nM | < 50 nM | < 500 nM | CC(=O)N1c2ccc(-c3cnn(C4CC4)c3)c(Oc3ccc(C#N)cc3)c2CC[C@@H]1C [I-217, (S)-4-(1-acetyl-6-(1-cyclopropyl-1H-pyrazol-4-yl)-2-methyl-1,2,3,4-tetrahydroquinolin-5-yloxy)benzonitrile]

Row | SMILES | IC50 [1] | IC50 [2] | IC50 [3]
24 | C[C@H]1CCc2c(ccc(-c3cnn(C4CCNCC4)c3)c2OC2CCC2)N1C(=O)C1CC1 [I-99, (2S)-5-cyclobutoxy-1-cyclopropanecarbonyl-2-methyl-6-[1-(piperidin-4-yl)-1H-pyrazol-4-yl]-1,2,3,4-tetrahydroquinoline] | 100 to 1000 nM | < 50 nM | < 500 nM
